From patent US10736933B2, “Peptide-induced NK cell activation” (priority 2015, dated 2020)

How the values were obtained:
KIR2DS2 = biological target: T1, KIR2DS2 (Homo sapiens, UniProt P43631); test: KIR2DS2 tetramer (KIR2DS2-PE) staining of peptide-loaded L721.174 cells; assay type: binding; settings: L721.174 cells incubated overnight at 26° C. with peptide, flow cytometry
T1 construct: made in house
Experimental: A. The KIR2DS2 protein was expressed with a biotinylation C-terminal tag. Following biotinylation with the BirA enzyme, the KIR2DS2 protein was incubated with streptavidin-phycoerythrin to form fluorescent KIR2DS2-tetramers (KIR2DS2-PE). L721.174 cells were then incubated with indicated peptides. Cells were then stained with KIR2DS2-PE and analysed by flow cytometry. Shown are histogram plots. The bold numbers represent the mean fluorescent staining intensity of the KIR2DS2-PE staining of the cells in the presence of peptide and the non-bold numbers the staining in the absence of peptide. B. Represents the mean and standard error fluorescent intensities of the experiment in “A” following replicate experiments.
A. L721.174 cells were incubated with indicated peptides. Cells were then stained with KIR2DS2-PE (see FIG. 4) and analysed by flow cytometry. Shown are histogram plots. The bold numbers represent the mean fluorescent staining intensity of the KIR2DS2-PE staining of the cells in the presence of peptide and the non-bold numbers the staining in the absence of peptide. B. Represents the mean and standard error fluorescent intensities of the experiment in “A” following replicate experiments.
FIG. 13—KIR2DS2 tetramer staining on 174 cells with and without peptides. Peptides tested include IVDLMCHATF (SEQ ID NO: 1); VIDAMCHATL (SEQ ID NO: 2); AANVMAASL (SEQ ID NO: 3); and FLSDVPVATL (SEQ ID NO: 4). A negative control peptide VAPWNSFAL (SEQ ID NO: 12) and positive control peptide LNPSVAATL (SEQ ID NO: 5) were included. The mean fluorescence intensity of the KIR2DS2 tetramer staining is shown in the right hand corner of the graph.
With reference to FIG. 4A, the KIR2DS2 protein was expressed as a recombinant protein with a biotinylation C-terminal tag. Following biotinylation with the BirA enzyme, the KIR2DS2 protein was incubated with streptavidin-phycoerythrin to form fluorescent KIR2DS2-tetramers (KIR2DS2-PE). 3×10^5 L721.174 cells were then incubated overnight at 26° C. with indicated peptides at a concentration of […]. Cells were then stained with KIR2DS2-PE and analysed by flow cytometry. Shown are histogram plots. The bold numbers represent the mean fluorescent staining intensity of the KIR2DS2-PE staining of the cells in the presence of peptide and the non-bold numbers the staining in the absence of peptide. With reference to FIG. 4B, panel B represents the mean and standard error fluorescent intensities of the experiment in “A” following replicate experiments.
With reference to FIG. 5A, 3×10^5 L721.174 cells were incubated overnight at 26° C. with indicated peptides at a concentration of 200 μM. Cells were then stained with KIR2DS2-PE (see FIG. 4) and analysed by flow cytometry. Shown are histogram plots. The bold numbers represent the mean fluorescent staining intensity of the KIR2DS2-PE staining of the cells in the presence of peptide and the non-bold numbers the staining in the absence of peptide. With reference to FIG. 5B, panel B represents the mean and standard error fluorescent intensities of the experiment in “A” following replicate experiments.
With reference to FIG. 13, the KIR2DS2 protein was expressed as a recombinant protein with a biotinylation C-terminal tag. Following biotinylation with the BirA enzyme, the KIR2DS2 protein was incubated with streptavidin-phycoerythrin to form fluorescent KIR2DS2-tetramers (KIR2DS2-PE). […] Cells were then stained with KIR2DS2-PE and analysed by flow cytometry. […]

[1] = system: KIR2DS2-positive NK cell clones; test: Cytotoxicity of NK cell clones against peptide-loaded L721.174 cells (Live/Dead stain); assay type: cell-based; settings: KIR2DS2-positive clones 4, 6, 9 only (not KIR2DS2-negative clone 27); compared to no peptide or VAPWNSFAL
Experimental: (§1) L721.174 cells were incubated in the presence or absence of the peptides VAPWNSFAL (SEQ ID NO: 12) and the LNPSVAATL (SEQ ID NO: 5). The cells were then labeled with the cell tracker orange dye, and then cultured with KIR2DS2-positive NK cell clones (clones 4,6,9) or a KIR2DS2-negative NK cell clone (clone 27). Cytotoxicity was then determined using Live/Dead® fixable far-red stain.
as §1, with “With reference to FIG. 3, 3×10^5 L721.174” for “L721.174”, “incubated at 26° C. overnight” for “incubated”, “cultured for four hours” for “cultured”

[2] = system: KIR2DS2-positive NK cells; test: CD107a degranulation of NK cells from KIR2DS2-positive donors cultured with peptide-loaded L721.174 cells; assay type: cell-based
Experimental: A. cells were incubated in the presence or absence of peptides, and then cultured with NK cells from either a KIR2DS2-positive or KIR2DS2-negative donor. The level of CD107a (LAMP) expression was measured on NK cells positive for the CH-L antibody. This antibody binds to KIR2DS2, KIR2DL2 and KIR2DL3. B. Summary data from 5 KIR2DS2-positive and 6 KIR2DS2 • negative donors tested as per panel A of FIG. 2. To compare the different donors the data are normalized to 100% for the no peptide condition.
With reference to FIG. 2A, 3×10^5 L721.174 cells were incubated at 26° C. overnight in the presence or absence of peptides, and then cultured for four hours with NK cells from either a KIR2DS2-positive or KIR2DS2-negative donor. The level of CD107a (LAMP) expression was measured on NK cells positive for the CH-L antibody. This antibody binds to KIR2DS2, KIR2DL2 and KIR2DL3. […] With reference to FIG. 2B, summary data from 5 KIR2DS2-positive and 6 KIR2DS2 • negative donors were tested as per panel A of FIG. 2. To compare the different donors the data are normalized to 100% for the no peptide condition.

T1 sequence (P43631 22-245 limits assumed): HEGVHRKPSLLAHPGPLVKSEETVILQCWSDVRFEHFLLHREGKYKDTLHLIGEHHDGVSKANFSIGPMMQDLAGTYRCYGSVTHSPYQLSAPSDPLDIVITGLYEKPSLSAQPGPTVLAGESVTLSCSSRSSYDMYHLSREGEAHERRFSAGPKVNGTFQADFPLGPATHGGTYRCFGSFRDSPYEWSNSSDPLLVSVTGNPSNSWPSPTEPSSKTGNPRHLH

IVDLMCHATF [Dengue virus peptide]
KIR2DS2-PE tetramer binding to HLA-C*0102 and peptide (KIR2DS2): KIR2DS2 BINDS

LNPSVAATL [peptide recognized by KIR2DS2-positive NK cells]
killing of L721.174 cell line [1]: killed the L721.174 cell line to greater extent | KIR2DS2-PE tetramer binding to HLA-C*0102 and peptide (KIR2DS2): KIR2DS2 binds | level of CD107a (LAMP) degranulation ([2]; KIR2DS2-positive donor, CH-L antibody positive NK cells, four hours, compared to no peptide): higher levels of degranulation | level of CD107a (LAMP) degranulation ([2]; KIR2DS2-positive donors, in combination with VAPWNSFAL, compared to the VAPWNSFAL peptide alone): higher levels of degranulation
